According to the supplement of paper PMC10307832:

Tests used:
Experiment in all cases: relative viability (nuclei count vs DMSO), 5 days (fraction); higher = more cells survive
Sorafenib + Tozasertib = compound: CNC(=O)c1cc(Oc2ccc(NC(=O)Nc3ccc(Cl)c(C(F)(F)F)c3)cc2)ccn1 [Sorafenib] + Cc1cc(Nc2cc(N3CCN(C)CC3)nc(Sc3ccc(NC(=O)C4CC4)cc3)n2)n[nH]1 [Tozasertib] (partner 0.1 µM)
Outline: (§1)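 The day after seeding in 1536-well plates, lung cancer cell lines were treated by pin tool with a single drug, or with a fixed anchor-drug dose together with five library-drug doses (not always all listed) in √10 steps. After 5 days, a combined fix-and-stain solution (final 0.05% Triton X-100, 1% formaldehyde, 1 ug/ml Hoechst) was added. Nuclei counted on 4× images gave relative viability as treated counts over vehicle counts, reported as the median of duplicate plates.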

Sorafenib + Dasatinib = compound: CNC(=O)c1cc(Oc2ccc(NC(=O)Nc3ccc(Cl)c(C(F)(F)F)c3)cc2)ccn1 [Sorafenib] + Cc1nc(Nc2ncc(C(=O)Nc3c(C)cccc3Cl)s2)cc(N2CCN(CCO)CC2)n1 [Dasatinib] (partner 0.075 µM)
Outline: as §1

Sorafenib + Crizotinib = compound: CNC(=O)c1cc(Oc2ccc(NC(=O)Nc3ccc(Cl)c(C(F)(F)F)c3)cc2)ccn1 [Sorafenib] + C[C@@H](Oc1cc(-c2cnn(C3CCNCC3)c2)cnc1N)c1c(Cl)ccc(F)c1Cl [Crizotinib] (partner 1 µM)
Outline: as §1

Sorafenib + OSI-027 = compound: CNC(=O)c1cc(Oc2ccc(NC(=O)Nc3ccc(Cl)c(C(F)(F)F)c3)cc2)ccn1 [Sorafenib] + COc1cccc2cc(-c3nc([C@H]4CC[C@H](C(=O)O)CC4)n4ncnc(N)c34)[nH]c12 [OSI-027] (partner 0.5 µM)
Outline: as §1

Sorafenib + Linsitinib = compound: CNC(=O)c1cc(Oc2ccc(NC(=O)Nc3ccc(Cl)c(C(F)(F)F)c3)cc2)ccn1 [Sorafenib] + C[C@]1(O)C[C@@H](c2nc(-c3ccc4ccc(-c5ccccc5)nc4c3)c3c(N)nccn32)C1 [Linsitinib] (partner 1 µM)
Outline: as §1

Cell Line | relative viability (Sorafenib + Tozasertib; first compound 0.08 µM) | relative viability (Sorafenib + Tozasertib; first compound 0.253 µM) | relative viability (Sorafenib + Tozasertib; first compound 2.53 µM) | relative viability (Sorafenib + Tozasertib; first compound 8 µM) | relative viability (Sorafenib + Dasatinib; first compound 0.08 µM) | relative viability (Sorafenib + Dasatinib; first compound 0.253 µM) | relative viability (Sorafenib + Dasatinib; first compound 2.53 µM) | relative viability (Sorafenib + Dasatinib; first compound 8 µM) | relative viability (Sorafenib + Crizotinib; first compound 0.08 µM) | relative viability (Sorafenib + Crizotinib; first compound 0.253 µM) | relative viability (Sorafenib + Crizotinib; first compound 2.53 µM) | relative viability (Sorafenib + Crizotinib; first compound 8 µM) | relative viability (Sorafenib + OSI-027; first compound 0.08 µM) | relative viability (Sorafenib + OSI-027; first compound 0.253 µM) | relative viability (Sorafenib + OSI-027; first compound 2.53 µM) | relative viability (Sorafenib + OSI-027; first compound 8 µM) | relative viability (Sorafenib + Linsitinib; first compound 0.08 µM) | relative viability (Sorafenib + Linsitinib; first compound 0.253 µM) | relative viability (Sorafenib + Linsitinib; first compound 2.53 µM) | relative viability (Sorafenib + Linsitinib; first compound 8 µM)
NCI-H1437 | 0.419 | 0.384 | 0.416 | 0.291 | 0.416 | 0.288 | 0.421 | 0.142 | 0.941 | 0.827 | 0.844 | 0.496 | 0.949 | 0.676 | 0.8 | 0.558 | 0.989 | 1 | 0.657 | 0.244
HOP-62 | 0.431 | 0.331 | 0.338 | 0.155 | 0.796 | 0.527 | 0.584 | 0.59 | 1.01 | 0.901 | 0.84 | 0.57 | 0.848 | 0.631 | 0.759 | 0.657 | 1.14 | 0.839 | 0.781 | 0.49
LCLC-97TM1 | 0.191 | 0.232 | 0.195 | 0.188 | 0.984 | 0.841 | 0.683 | 0.676 | 0.326 | 0.358 | 0.364 | 0.121 | 0.552 | 0.515 | 0.336 | 0.272 | 0.224 | 0.161 | 0.153 | 0.184
NCI-H2009 | 0.775 | 0.666 | 0.723 | 0.498 | 0.346 | 0.23 | 0.325 | 0.16 | 0.972 | 0.921 | 0.915 | 0.603 | 0.629 | 0.355 | 0.601 | 0.303 | 1.15 | 1.11 | 1.05 | 1.11
NCI-H647 | 0.246 | 0.218 | 0.165 | 0.0549 | 0.245 | 0.172 | 0.174 | 0.135 | 1.05 | 0.972 | 0.867 | 0.395 | 0.62 | 0.634 | 0.506 | 0.427 | 1.16 | 0.992 | 0.976 | 0.243
NCI-H1563 |  |  |  |  | 0.496 | 0.469 | 0.478 | 0.454 | 0.893 | 0.993 | 0.889 | 0.674 | 0.792 | 0.766 | 0.687 | 0.7 | 1.08 | 1.41 | 1.21 | 1.16
NCI-H3122 | 0.44 | 0.363 | 0.363 | 0.301 | 0.92 | 0.422 | 0.715 | 0.311 | 0.29 | 0.317 | 0.326 | 0.293 | 0.99 | 0.898 | 0.805 | 0.378 | 1.06 | 1.02 | 1.01 | 0.828
BEN | 0.519 | 0.423 | 0.536 | 0.482 | 0.342 | 0.255 | 0.381 | 0.309 | 1 | 0.844 | 0.862 | 0.68 | 0.318 | 0.326 | 0.338 | 0.27 | 1.02 | 0.914 | 0.886 | 0.693
COR-L23 | 0.24 | 0.185 | 0.113 | 0.079 | 0.55 | 0.495 | 0.514 | 0.235 | 0.902 | 0.609 | 0.657 | 0.551 | 0.874 | 0.725 | 0.754 |  | 1.05 | 0.814 | 0.866 | 0.531
NCI-H2228 | 0.273 | 0.283 | 0.18 | 0.182 | 0.543 | 0.434 | 0.465 | 0.271 | 0.474 | 0.511 | 0.727 | 0.262 | 0.626 | 0.607 |  | 0.365 | 0.682 | 0.551 | 0.669 | 0.596
NCI-H2405 | 0.819 | 0.743 | 0.751 | 0.613 | 0.217 | 0.183 | 0.2 | 0.214 | 0.884 | 0.767 |  | 0.76 | 0.679 | 0.662 | 0.731 | 0.546 | 1.1 | 0.907 | 0.715 | 0.502
NCI-H1666 | 0.681 | 0.641 | 0.581 | 0.503 | 0.913 | 0.788 | 0.829 |  | 1.01 | 0.899 |  | 0.487 | 0.912 | 0.781 | 0.798 | 0.692 | 0.927 | 0.82 | 0.656 | 0.611
A-427 | 0.21 | 0.261 | 0.217 | 0.132 | 0.75 | 0.671 |  | 0.31 | 0.895 | 0.855 | 0.826 | 0.369 | 0.522 | 0.511 | 0.432 | 0.219 | 1.07 | 1.06 | 1.03 | 0.987
COR-L 105 | 0.405 | 0.435 | 0.322 | 0.411 | 0.475 | 0.31 |  | 0.356 | 0.874 | 0.73 | 0.839 | 0.855 | 0.816 | 0.735 | 1.05 | 0.677 | 0.853 | 0.926 | 0.906 | 0.985
NCI-H1755 | 0.498 | 0.532 | 0.471 | 0.456 | 0.419 | 0.436 | 0.409 | 0.35 | 0.917 | 0.817 | 0.874 | 0.615 | 0.718 | 0.639 | 0.746 | 0.666 | 1.03 | 1.02 | 0.971 | 0.743
NCI-H23 | 0.362 | 0.286 | 0.276 | 0.219 | 0.804 | 0.691 | 0.646 | 0.709 | 0.566 | 0.427 | 0.689 | 0.427 |  | 0.501 | 0.488 | 0.398 | 0.626 | 0.439 | 0.553 | 0.512
